Legend:
Format in all cases: cell-based
[1] = target: T1, 5-HT2A (Homo sapiens, UniProt P28223); assay: FLIPR Ca2+ flux functional assay, 5-HT2A (HEK293); details: HEK293 cells expressing 5-HT2A; for Emax: HEK293, agonist activity; for EC50: agonist activity
T1 construct: host or cells: HEK293

[2] = target: T2, 5-HT2B (Homo sapiens, UniProt P41595); assay: Activation in a similar Ca2+ flux assay at a single concentration, 5-HT2B; details: head prints 10 µM
T2 construct: host or cells: CHO-K1
Protocol: Activity at 5-HT2A, 5-HT2B and 5-HT2C receptors was determined using a FLIPR Ca2+ flux assay at WuXi AppTec Co. Ltd. (Hong Kong) Discovery Biology Unit according to their standard protocols. Briefly, stably transfected cells expressing the receptor of interest (HEK293 for 5-HT2A and 5-HT2C; CHO-K1 for 5-HT2B) were grown and plated in a 384 well plate and incubated at 37° C. and 5% CO2 overnight. A 250 mM stock solution of probenecid in FLIPR calcium assay buffer (10 mL) was freshly prepared and combined with a fluorescent dye (Fluo-4 Direct) to give a final assay concentration of 2.5 mM. Reference compounds were 4-fold serially diluted and the screening compounds were 3-fold serially diluted in 100% DMSO for 10 points using Agilent Bravo, and 750 nL was added to a 384 well compound plate using Echo along with 30 μL assay buffer. The fluorescent dye was then added to the assay plate along with assay buffer to a final volume of 40 μL. The cell plate was incubated for 50 min at 37° C. and 5% CO2 and placed into the FLIPR Tetra along with the compound plate. 10 μL of references and compounds were then transferred from the compound plate into the cell plate and the fluorescent signal was read.
Activation data are provided in a similar assay tested at a single 10 μM concentration.

[3] = target: T3, 5-HT2C (Homo sapiens, UniProt P28335); assay: FLIPR Ca2+ flux functional assay, 5-HT2C (HEK293); details: HEK293 cells expressing 5-HT2C; for Emax: HEK293, agonist activity; for EC50: agonist activity
T3 construct: host or cells: HEK293
T3 sequence (P28335 33-458): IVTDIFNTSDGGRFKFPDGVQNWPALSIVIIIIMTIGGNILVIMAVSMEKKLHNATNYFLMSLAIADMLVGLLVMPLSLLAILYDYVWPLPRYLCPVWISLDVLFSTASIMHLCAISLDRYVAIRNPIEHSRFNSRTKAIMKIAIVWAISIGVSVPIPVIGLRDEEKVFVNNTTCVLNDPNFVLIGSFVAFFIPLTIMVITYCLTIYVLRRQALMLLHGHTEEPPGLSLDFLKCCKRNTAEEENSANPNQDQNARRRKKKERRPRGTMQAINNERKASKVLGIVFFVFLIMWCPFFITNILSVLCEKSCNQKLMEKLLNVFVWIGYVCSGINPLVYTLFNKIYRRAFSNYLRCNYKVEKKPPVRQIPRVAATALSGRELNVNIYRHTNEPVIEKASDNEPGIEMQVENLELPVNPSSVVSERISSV

T1 sequence (P28223 whole entry): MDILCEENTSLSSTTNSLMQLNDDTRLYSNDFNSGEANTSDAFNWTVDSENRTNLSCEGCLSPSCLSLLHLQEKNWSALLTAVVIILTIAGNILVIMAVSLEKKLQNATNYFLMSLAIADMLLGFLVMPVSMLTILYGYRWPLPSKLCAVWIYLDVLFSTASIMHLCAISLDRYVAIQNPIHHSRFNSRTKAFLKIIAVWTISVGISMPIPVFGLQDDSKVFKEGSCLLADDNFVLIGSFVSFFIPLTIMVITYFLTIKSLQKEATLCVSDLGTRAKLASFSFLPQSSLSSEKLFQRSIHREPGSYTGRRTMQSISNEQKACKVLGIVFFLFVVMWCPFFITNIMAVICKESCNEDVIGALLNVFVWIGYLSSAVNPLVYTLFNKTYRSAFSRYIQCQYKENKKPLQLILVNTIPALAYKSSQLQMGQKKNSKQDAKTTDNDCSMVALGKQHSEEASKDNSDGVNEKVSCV
T2 sequence (P41595 whole entry, species assumed): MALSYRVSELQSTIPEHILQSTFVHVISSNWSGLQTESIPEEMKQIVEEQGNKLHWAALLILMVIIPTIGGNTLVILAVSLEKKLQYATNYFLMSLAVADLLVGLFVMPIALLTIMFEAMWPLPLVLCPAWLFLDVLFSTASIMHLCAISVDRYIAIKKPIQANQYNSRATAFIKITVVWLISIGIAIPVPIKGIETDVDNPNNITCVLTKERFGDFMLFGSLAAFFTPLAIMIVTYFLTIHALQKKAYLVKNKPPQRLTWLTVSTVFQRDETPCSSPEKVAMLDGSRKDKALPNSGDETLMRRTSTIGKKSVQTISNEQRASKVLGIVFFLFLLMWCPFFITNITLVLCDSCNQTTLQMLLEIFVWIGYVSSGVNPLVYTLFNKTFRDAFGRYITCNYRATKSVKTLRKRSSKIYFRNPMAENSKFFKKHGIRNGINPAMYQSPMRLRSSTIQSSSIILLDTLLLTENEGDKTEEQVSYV

| SMILES | Emax [1] [%] | EC50 [1] [nM] | 5-HT2B % Activation @ 10 µM [2] [%] | Emax [3] [%] | EC50 [3] [nM] |
| --- | --- | --- | --- | --- | --- |
| CCN(C)CCc1n[nH]c2cc(F)cc(OC)c12 [Example A39, N-ethyl-2-(6-fluoro-4-methoxy-1H-indazol-3-yl)-N-methylethan-1-amine] | 75 | 116 | 0 | 78 | 375 |
| COc1cc(F)cc2[nH]nc(CCN(C)C(C)C)c12 [Example A40, N-(2-(6-fluoro-4-methoxy-1H-indazol-3-yl)ethyl)-N-methylpropan-2-amine] | 72 | 322 | 0 | 68 | > 10000 |
| COc1cc(F)cc2[nH]nc(CCN3CCC4CC43)c12 (stereo not drawn) [Example A43, 3-(2-(2-azabicyclo[3.1.0]hexan-2-yl)ethyl)-6-fluoro-4-methoxy-1H-indazole] | 89 | 29.7 | 102 | 99 | 39.9 |
| COc1ccc(F)c2[nH]nc(CCN(C)C)c12 [Example A44, 2-(7-fluoro-4-methoxy-1H-indazol-3-yl)-N,N-dimethylethan-1-amine] | 52 | 93 | 0 | 44 | 222 |
| CCN(C)CCc1n[nH]c2c(F)ccc(OC)c12 [Example A45, N-ethyl-2-(7-fluoro-4-methoxy-1H-indazol-3-yl)-N-methylethan-1-amine] | 67 | 163 | 0 | 61 | 614 |
| COc1ccc(F)c2[nH]nc(CCN(C)C(C)C)c12 [Example A46, N-(2-(7-fluoro-4-methoxy-1H-indazol-3-yl)ethyl)-N-methylpropan-2-amine] | 74 | 133 | 0 | 0 | > 10000 |
| COc1ccc(F)c2[nH]nc(CCN3CCC3)c12 [Example A47, 3-(2-(azetidin-1-yl)ethyl)-7-fluoro-4-methoxy-1H-indazole] | 88 | 105 | 17 | 72 | 64 |
| COc1ccc(F)c2[nH]nc(CCN3CCC4CC43)c12 (stereo not drawn) [Example A49, 3-(2-(2-azabicyclo[3.1.0]hexan-2-yl)ethyl)-7-fluoro-4-methoxy-1H-indazole] | 69 | 216 | 7 | 59 | 166 |
| COc1cc(F)c2[nH]nc(CCN(C)C)c2c1 [Example A50, 2-(7-fluoro-5-methoxy-1H-indazol-3-yl)-N,N-dimethylethan-1-amine] | 79 | 242 | 2 | 11 | > 10000 |
| CCN(C)CCc1n[nH]c2c(F)cc(OC)cc12 [Example A51, N-ethyl-2-(7-fluoro-5-methoxy-1H-indazol-3-yl)-N-methylethan-1-amine] | 85 | 88 | 1 | 43 | 1370 |
| COc1cc(F)c2[nH]nc(CCN(C)C(C)C)c2c1 [Example A52, N-(2-(7-fluoro-5-methoxy-1H-indazol-3-yl)ethyl)-N-methylpropan-2-amine] | 42 | 650 | 0 | 0 | > 10000 |
| COc1cc(F)c2[nH]nc(CCN3CCC3)c2c1 [Example A53, 3-(2-(azetidin-1-yl)ethyl)-7-fluoro-5-methoxy-1H-indazole] | 94 | 318 | 0 | 48 | 1180 |
| COc1cc(F)c2[nH]nc(CCN3CCC4CC43)c2c1 (stereo not drawn) [Example A55, 3-(2-(2-azabicyclo[3.1.0]hexan-2-yl)ethyl)-7-fluoro-5-methoxy-1H-indazole] | 86.2 | 39.8 | 48 | 87 | 207 |
| COc1cc2c(CCN3CCC3)n[nH]c2cc1F [Example A56, 3-(2-(azetidin-1-yl)ethyl)-6-fluoro-5-methoxy-1H-indazole] | 90 | 105 | 11 | 50 | 3070 |
| COc1cc2c(CCN3CC(C)C3)n[nH]c2cc1F [Example A57, 6-fluoro-5-methoxy-3-(2-(3-methylazetidin-1-yl)ethyl)-1H-indazole] | 70 | 610 | 0 | 3 | > 10000 |
| COc1cc2c(CCN3CCC3C)n[nH]c2cc1F (stereo not drawn) [Example A58, 6-fluoro-5-methoxy-3-(2-(2-methylazetidin-1-yl)ethyl)-1H-indazole] | 57 | 1130 | 0 | 19 | > 10000 |
| COc1cc2c(CCN3CCCC3)n[nH]c2cc1F [Example A59, 6-fluoro-5-methoxy-3-(2-(pyrrolidin-1-yl)ethyl)-1H-indazole] | 79 | 202 | 5 | 66 | 3870 |
| COc1cc2c(CCN3CCC4CC43)n[nH]c2cc1F (stereo not drawn) [Example A60, 3-(2-(2-azabicyclo[3.1.0]hexan-2-yl)ethyl)-6-fluoro-5-methoxy-1H-indazole] | 92 | 8.12 | 89 | 90 | 255 |
| COc1ccc2[nH]nc(CCNCc3ccccc3)c2c1 [Example A62, N-benzyl-2-(5-methoxy-1H-indazol-3-yl)ethan-1-amine] | 81 | 29.1 | 0 | 85 | 179 |
| COc1ccc2[nH]nc(CCNCc3ccccc3OC)c2c1 [Example A63, 2-(5-methoxy-1H-indazol-3-yl)-N-(2-methoxybenzyl)ethan-1-amine] | 92 | 2.24 | 11 | 88 | 32.5 |
| COc1ccc2[nH]nc(CCNCc3ccccc3F)c2c1 [Example A64, N-(2-fluorobenzyl)-2-(5-methoxy-1H-indazol-3-yl)ethan-1-amine] | 79 | 68.7 | 0 | 82 | 602 |
| COc1ccc2[nH]nc(CCNCc3cccc(F)c3)c2c1 [Example A65, N-(3-fluorobenzyl)-2-(5-methoxy-1H-indazol-3-yl)ethan-1-amine] | 70 | 91.6 | 1 | 81 | 891 |
| COc1cccc(CNCCc2n[nH]c3ccc(OC)cc23)c1 [Example A66, 2-(5-methoxy-1H-indazol-3-yl)-N-(3-methoxybenzyl)ethan-1-amine] | 63 | 50 | 0 | 53 | 1260 |
| CN(C)CCc1n[nH]c2c(F)cccc12 [Example A67, 2-(7-fluoro-1H-indazol-3-yl)-N,N-dimethylethan-1-amine] | 63 | 422 | 0 | 37 | 1670 |
| CCN(C)CCc1n[nH]c2c(F)cccc12 [Example A68, N-ethyl-2-(7-fluoro-1H-indazol-3-yl)-N-methylethan-1-amine] | 40 | 469 | 0 | 32 | 1920 |
| CN(C)CCc1n[nH]c2ccc(F)c(F)c12 [Example A69, 2-(4,5-difluoro-1H-indazol-3-yl)-N,N-dimethylethan-1-amine] | 79 | 276 | 5 | 62 | 132 |
| CCN(C)CCc1n[nH]c2ccc(F)c(F)c12 [Example A70, 2-(4,5-difluoro-1H-indazol-3-yl)-N-ethyl-N-methylethan-1-amine] | 78 | 383 | 0 | 76 | 226 |

— patent US12428380B2 (PSYLO PTY LTD, priority 2023, dated 2025)
